Source: patent US20100204146A1, “Treatment of Oestrogen Dependant Conditions in Pre-menopausal Women” (PregLem S.A., priority 2007, published 2010)

Legend:
[1] = test system: person with peritoneal and ovarian endometriosis; experiment: Endometriosis patient treated with STS-I, then with added progestin; type: in vivo, human
Procedure: A nulliparous person was diagnosed with a moderate/severe peritoneal and ovarian endometriosis during a laparoscopy performed for chronic pelvic pain, dyspareunia and infertility. Despite careful debulking of the lesions during the laparoscopy, the symptoms persisted and medical treatment is indicated. A STS-I, E2MATE is administered at 1.0 mg/week.

[2] = test system: female Cynomolgus monkeys (Macaca fascicularis); experiment: 39-week intragastric study in female Cynomolgus monkeys: impact on ovarian cycle and function, microscopic status at necropsy; conditions: for Ovary: Absence of corpora lutea (% of animals) / Ovary: Absence of corpora lutea (no. of animals) / Ovary: Cyst (% of animals) / Ovary: Cyst (no. of animals) / Ovary: Increase in growing follicles (% of animals) / Ovary: Increase in growing follicles (no. of animals): 8 animals, after 39 weeks, necropsy; for menstrual cycle pattern: whole treatment period
Procedure: Three groups of eight female Cynomolgus monkeys (Macaca fascicularis) each were treated intragastrically over a period of approximately 39 weeks at daily doses of 0.2, 0.8 and 2.0 mg/kg of E2MATE using an application volume of 10 mL/kg. A fourth group (control) received an equivalent volume of the vehicle under the same experimental conditions. […] After 39 weeks of treatment, the microscopic status at necropsy was as follows:

metastatic breast cancer = experiment: Metastatic breast cancer patient treated with STS-I with GnRH agonist maintained; type: in vivo, human; conditions: daily administration
Procedure: In a person, a metastatic breast cancer is progressing despite administration of aromatase inhibitor and a GnRH agonist. […] STX64, a STS-I from the coumate family of compound is administered on a daily basis.

[3] = molecular target: T1, sulfatase activity present in eutopic and ectopic endometrium (Homo sapiens, UniProt P08842); conditions: in vitro; cited from earlier work
T1 construct: abolish the sulfatase activity present in eutopic and ectopic endometrium; host or cells: eutopic and ectopic endometrium (tissue)
T1 sequence (P08842 22-583): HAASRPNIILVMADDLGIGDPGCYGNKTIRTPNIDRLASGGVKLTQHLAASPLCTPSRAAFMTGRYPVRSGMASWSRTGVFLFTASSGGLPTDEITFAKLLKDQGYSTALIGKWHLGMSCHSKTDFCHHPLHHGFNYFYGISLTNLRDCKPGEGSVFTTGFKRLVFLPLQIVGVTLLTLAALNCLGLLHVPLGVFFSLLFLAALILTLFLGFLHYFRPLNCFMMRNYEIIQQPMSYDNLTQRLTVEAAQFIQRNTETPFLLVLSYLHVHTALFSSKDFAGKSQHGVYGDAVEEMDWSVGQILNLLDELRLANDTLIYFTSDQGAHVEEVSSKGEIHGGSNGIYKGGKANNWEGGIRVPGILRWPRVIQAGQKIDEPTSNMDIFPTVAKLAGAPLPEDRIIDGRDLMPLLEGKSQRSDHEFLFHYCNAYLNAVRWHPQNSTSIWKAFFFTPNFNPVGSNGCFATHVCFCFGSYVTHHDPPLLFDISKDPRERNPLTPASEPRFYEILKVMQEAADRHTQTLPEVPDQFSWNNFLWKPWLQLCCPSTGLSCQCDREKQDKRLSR

[4] = E2MATE 1.0 mg/week associated with norgestrel 0.1 mg/day

C[C@]12CC[C@@H]3c4ccc(OS(N)(=O)=O)cc4CC[C@H]3[C@@H]1CC[C@@H]2O [E2MATE, Estradiol sulfamate]
endometriosis symptoms ([1]; 1.0 mg/week, alone): partially relieved
serum estradiol (E2) ([1]; 1.0 mg/week, alone): fluctuating serum E2 in the hundred of pg range
vaginal bleeding ([1]; 1.0 mg/week, alone): irregular episodes of mild but painful vaginal bleeding
patient's symptoms [1, 4]: further improvement
serum estradiol levels and bleeding episode [1, 4]: reduction
animals became amenorrheic ([2]; 0.2 mg/kg daily, intragastric, treatment period): 2/8
Ovary: Absence of corpora lutea (% of animals) ([2]; 0.2 mg/kg dose group): (87.5%)
Ovary: Absence of corpora lutea (no. of animals) ([2]; 0.2 mg/kg dose group): 7
Ovary: Cyst (% of animals) ([2]; 0.2 mg/kg dose group): (12.5%)
Ovary: Cyst (no. of animals) ([2]; 0.2 mg/kg dose group): 1
Ovary: Increase in growing follicles (% of animals) ([2]; 0.2 mg/kg dose group): (50%)
Ovary: Increase in growing follicles (no. of animals) ([2]; 0.2 mg/kg dose group): 4
menstrual cycle pattern ([2]; 0.8 mg/kg daily, intragastric): persistent amenorrhea in most animals
Ovary: Absence of corpora lutea (% of animals) ([2]; 0.8 mg/kg dose group): (100%)
Ovary: Absence of corpora lutea (no. of animals) ([2]; 0.8 mg/kg dose group): 8
Ovary: Cyst (% of animals) ([2]; 0.8 mg/kg dose group): (12.5%)
Ovary: Cyst (no. of animals) ([2]; 0.8 mg/kg dose group): 1
Ovary: Increase in growing follicles (% of animals) ([2]; 0.8 mg/kg dose group): (12.5%)
Ovary: Increase in growing follicles (no. of animals) ([2]; 0.8 mg/kg dose group): 1
menstrual cycle pattern ([2]; 2.0 mg/kg daily, intragastric): persistent amenorrhea in most animals
Ovary: Absence of corpora lutea (% of animals) ([2]; 4.0 mg/kg dose group): (100%)
Ovary: Absence of corpora lutea (no. of animals) ([2]; 4.0 mg/kg dose group): 8
Ovary: Cyst (% of animals) ([2]; 4.0 mg/kg dose group): (0%)
Ovary: Cyst (no. of animals) ([2]; 4.0 mg/kg dose group): 0
Ovary: Increase in growing follicles (% of animals) ([2]; 4.0 mg/kg dose group): (50%)
Ovary: Increase in growing follicles (no. of animals) ([2]; 4.0 mg/kg dose group): 4

NS(=O)(=O)Oc1ccc2c3c(c(=O)oc2c1)CCCCC3 [STX64]
follicular development (metastatic breast cancer): no follicular development is recorded
sulfatase activity in eutopic and ectopic endometrium [3]: abolish
